Measured values as given in patent US20170042991A1, “COMPOSITIONS COMPRISING GLUTEN PEPTIDES AND USES THEREOF” (ImmusanT, Inc., priority 2014, published 2017).
Non-standard residues stand in square brackets, D forms with d. pGlu = O=C1CC[C@@H](C(=O)O)N1

Experiments:
Assay type in all cases: cell-based, human
[1] = test system: gluten-reactive T cells; assay: Cytokine release assays taken together (IFNγ ELISpot, whole blood IFNγ and IP-10 release); settings: for relative activity among individual peptides tested: blood collected after oral gluten challenge, HLA-DQ2.5+ subjects
Method: Gluten peptide solutions for addition to whole blood were arranged according to standardized templates in sterile 96-well U-bottom plates (30 μL/well). Plates were sealed with adhesive ELISA plate cover slips before the plastic lid was replaced and being frozen at −80° C. Whole blood assay (WBA) “medium” (1% DMSO in 90% PBS and 9% normal saline), mitogen (PHA-L, Sigma-Aldrich #L2769; St Louis Mo.) 100 μg/ml in WBA medium, and CEF diluted to 10 μg/ml in PBS with a final concentration of 1% DMSO were frozen separately in sterile cryovials. 96-well plates and cryovials with frozen incubation solutions were shipped on dry ice to the clinical site where blood was collected and incubations performed. Solutions were thawed at room temperature for 10 min just before being added to whole blood. 96-well plates were thawed while being centrifuged at 300 g to avoid surface condensation. A multi-channel pipette was used to efficiently transfer 25 μL of peptide solutions from the original 96-well plate to corresponding wells in a fresh sterile 96-well U-bottom plate. Once incubation solutions had been added, 225 μL of whole blood was added to each well and the plate transferred to incubate for 24 h at 37° C. 5% CO2. […] Individual peptides were incubated at a final assay concentration of 5 μM. Final concentrations of individual peptides assessed in P3 was 0.05-50 μg/mL, and in P14 and P13 pools 0.025-25 μM. The P71 pool was tested at between 0.005-10 μg/mL, the highest tested concentration being the maximal possible not exceeding 0.1% DMSO. Peptide pools, mitogen, and medium only were assessed in triplicate wells, and on Day-6 individual peptides were assessed in duplicate wells. Incubations were terminated after 24 h, and 96-well plates centrifuged at 300 g for 10 min. A total of approximately 90 to 120 μL of plasma was removed from each well taking care to avoid red cell contamination, and transferred into corresponding wells of two further 96-well plates (one with 30 μL/well and the residual in the second plate). Plasmas were frozen at −80° C. and later shipped on dry ice to the central lab where IP-10 and IFNγ multiplex bead assays were performed according to manufacturer's instructions using 25 μL plasma per well (Milliplex® MAP Human Cytokine/Chemokine Magnetic Bead Panel #HCYTOMAG-60k-02; EMD Millipore Corp., Billerica, Mass. 01821) and analysed with the Luminex® MAGPIX® System xPONENT® software (Luminex Corporation, Austin Tex. 78727). Plasma cytokine levels for each assay condition were expressed as the mean analyte concentration of each of the three replicate incubations. Laboratory staff were unaware of the arrangement of peptide solutions incubated with during assay setup and plate counting. […]

[2] = test system: whole blood; assay: 96-well plate whole blood multiplex cytokine release, IFNγ (MAGPIX bead assay, Example 2); settings: for Percent of maximal response, IFNg: after oral gluten challenge; for IFNγ WB MAGPIX % max Mean: individual peptides 5 μM, Day-6, n = 8, Peptide 2 = CSBio batch
[3] = test system: whole blood; assay: 96-well plate whole blood multiplex cytokine release, IP-10 (MAGPIX bead assay, Example 2); settings: for Percent of maximal response, IP-10: after oral gluten challenge; for IP-10 WB MAGPIX % max Mean: individual peptides 5 μM, Day-6, n = 10, Peptide 2 = CSBio batch
[4] = test system: PBMC; assay: IFN-gamma ELISpot of PBMC, Day-6 after gluten challenge (Example 1); settings: DQ2.5+ CD

For “(pE)PEQPIPEQPQPYPQQ-amide ([pGlu]PEQPIPEQPQPYPQQ-NH2; SMILES CC[C@H](C)[C@H](NC(=O)[C@@H]1CCCN1C(=O)[C@H](CCC(N)=O)NC(=O)[C@H](CCC(=O)O)NC(=O)[C@@H]1CCCN1C(=O)[C@@H]1CCC(=O)N1)C(=O)N1CCC[C@H]1C(=O)N[C@@H](CCC(=O)O)C(=O)N[C@@H](CCC(N)=O)C(=O)N1CCC[C@H]1C(=O)N[C@@H](CCC(N)=O)C(=O)N1CCC[C@H]1C(=O)N[C@@H](Cc1ccc(O)cc1)C(=O)N1CCC[C@H]1C(=O)N[C@@H](CCC(N)=O)C(=O)N[C@@H](CCC(N)=O)C(N)=O) [Peptide 3]”, the “relative activity among individual peptides tested” value [1] was “consistently the second most active peptide after Peptide 14”, the “Percent of maximal response, IFNg” value ([2]; Subject 2, Max. 116 pg/mL) was 35 % of max and the “Percent of maximal response, IFNg” value ([2]; Subject 3, Max. 799 pg/mL) was 92 % of max. The “Percent of maximal response, IFNg” value ([2]; Subject 4, Max. 136 pg/mL) was 66 % of max, the “Percent of maximal response, IFNg” value ([2]; Subject 6, Max. 72 pg/mL) was 63 % of max and the “Percent of maximal response, IFNg” value ([2]; Subject 7, Max. 17 pg/mL) was 6 % of max. The “Percent of maximal response, IFNg” value ([2]; Subject 8, Max. 47 pg/mL) was 89 % of max, the “Percent of maximal response, IFNg” value ([2]; Subject 9, Max. 67 pg/mL) was 60 % of max and the “Percent of maximal response, IFNg” value ([2]; Subject 10, Max. 229 pg/mL) was 81 % of max. The “IFNγ WB MAGPIX % max Mean” value [2] was 62 % max, the “whole blood IFNγ release compared with that stimulated by Peptide 14” value ([2]; whole blood incubations) was “one-third less” and the “Percent of maximal response, IP-10” value ([3]; Subject 1, Max. 2331 pg/mL) was 51 % of max. For the same substance, the “Percent of maximal response, IP-10” value ([3]; Subject 2, Max. 3646 pg/mL) was 14 % of max, the “Percent of maximal response, IP-10” value ([3]; Subject 3, Max. 9492 pg/mL) was ≥ 100 % of max and the “Percent of maximal response, IP-10” value ([3]; Subject 4, Max. 9463 pg/mL) was ≥ 100 % of max. The “Percent of maximal response, IP-10” value ([3]; Subject 5, Max. 9336 pg/mL) was 53 % of max, the “Percent of maximal response, IP-10” value ([3]; Subject 6, Max. 5863 pg/mL) was 43 % of max and the “Percent of maximal response, IP-10” value ([3]; Subject 7, Max. 2330 pg/mL) was 5 % of max. The “Percent of maximal response, IP-10” value ([3]; Subject 8, Max. 4019 pg/mL) was 100 % of max, the “Percent of maximal response, IP-10” value ([3]; Subject 9, Max. 8349 pg/mL) was 85 % of max and the “Percent of maximal response, IP-10” value ([3]; Subject 10, Max. 8922 pg/mL) was ≥ 100 % of max. The “IP-10 WB MAGPIX % max Mean” value [3] was 65 % max, the “whole blood IP-10 release compared with that stimulated by Peptide 14” value ([3]; whole blood incubations) was “one-quarter less” and the “Peptide-specific IFN-gamma ELISpot response” value ([4]; Subject 1, 10 ug/ml) was 0 spot forming units per 0.8 million PBMC. For the same substance, the “Peptide-specific IFN-gamma ELISpot response” value ([4]; Subject 2, 10 ug/ml) was 1 spot forming units per 0.8 million PBMC, the “Peptide-specific IFN-gamma ELISpot response” value ([4]; Subject 3, 10 ug/ml) was 9 spot forming units per 0.8 million PBMC and the “Peptide-specific IFN-gamma ELISpot response” value ([4]; Subject 4, 10 ug/ml) was 30 spot forming units per 0.8 million PBMC. For the same substance, the “Peptide-specific IFN-gamma ELISpot response” value ([4]; Subject 5, 10 ug/ml) was 0 spot forming units per 0.8 million PBMC, the “Peptide-specific IFN-gamma ELISpot response” value ([4]; Subject 6, 10 ug/ml) was 11 spot forming units per 0.8 million PBMC and the “Peptide-specific IFN-gamma ELISpot response” value ([4]; Subject 7, 10 ug/ml) was 1 spot forming units per 0.8 million PBMC. The “Peptide-specific IFN-gamma ELISpot response” value ([4]; Subject 8, 10 ug/ml) was 9 spot forming units per 0.8 million PBMC, the “Peptide-specific IFN-gamma ELISpot response” value ([4]; Subject 9, 10 ug/ml) was 3 spot forming units per 0.8 million PBMC and the “Peptide-specific IFN-gamma ELISpot response” value ([4]; Subject 10, 10 ug/ml) was 1 spot forming units per 0.8 million PBMC.
With “(pE)LQPFPQPELPYPQPQ-amide ([pGlu]LQPFPQPELPYPQPQ-NH2; SMILES CC(C)C[C@H](NC(=O)[C@@H]1CCC(=O)N1)C(=O)N[C@@H](CCC(N)=O)C(=O)N1CCC[C@H]1C(=O)N[C@@H](Cc1ccccc1)C(=O)N1CCC[C@H]1C(=O)N[C@@H](CCC(N)=O)C(=O)N1CCC[C@H]1C(=O)N[C@@H](CCC(=O)O)C(=O)N[C@@H](CC(C)C)C(=O)N1CCC[C@H]1C(=O)N[C@@H](Cc1ccc(O)cc1)C(=O)N1CCC[C@H]1C(=O)N[C@@H](CCC(N)=O)C(=O)N1CCC[C@H]1C(=O)N[C@@H](CCC(N)=O)C(N)=O) [Peptide 1]” the “relative activity among individual peptides tested” value [1] was “most active of this group of related peptides”, the “activity as a fraction of that of Peptide 14” value ([1]; three cytokine release assays) was “no more than two-thirds” and the “Percent of maximal response, IFNg” value ([2]; Subject 2, Max. 116 pg/mL) was 100 % of max. The “Percent of maximal response, IFNg” value ([2]; Subject 3, Max. 799 pg/mL) was 14 % of max, the “Percent of maximal response, IFNg” value ([2]; Subject 4, Max. 136 pg/mL) was 26 % of max and the “Percent of maximal response, IFNg” value ([2]; Subject 6, Max. 72 pg/mL) was 25 % of max. The “Percent of maximal response, IFNg” value ([2]; Subject 7, Max. 17 pg/mL) was 43 % of max, the “Percent of maximal response, IFNg” value ([2]; Subject 8, Max. 47 pg/mL) was 6 % of max and the “Percent of maximal response, IFNg” value ([2]; Subject 9, Max. 67 pg/mL) was 43 % of max. The “Percent of maximal response, IFNg” value ([2]; Subject 10, Max. 229 pg/mL) was 7 % of max, the “IFNγ WB MAGPIX % max Mean” value [2] was 33 % max and the “Percent of maximal response, IP-10” value ([3]; Subject 1, Max. 2331 pg/mL) was 100 % of max. For the same substance, the “Percent of maximal response, IP-10” value ([3]; Subject 2, Max. 3646 pg/mL) was 100 % of max, the “Percent of maximal response, IP-10” value ([3]; Subject 3, Max. 9492 pg/mL) was ≥ 100 % of max and the “Percent of maximal response, IP-10” value ([3]; Subject 4, Max. 9463 pg/mL) was 96 % of max. For the same substance, the “Percent of maximal response, IP-10” value ([3]; Subject 5, Max. 9336 pg/mL) was 14 % of max, the “Percent of maximal response, IP-10” value ([3]; Subject 6, Max. 5863 pg/mL) was 23 % of max and the “Percent of maximal response, IP-10” value ([3]; Subject 7, Max. 2330 pg/mL) was 39 % of max. For the same substance, the “Percent of maximal response, IP-10” value ([3]; Subject 8, Max. 4019 pg/mL) was 3 % of max, the “Percent of maximal response, IP-10” value ([3]; Subject 9, Max. 8349 pg/mL) was 75 % of max and the “Percent of maximal response, IP-10” value ([3]; Subject 10, Max. 8922 pg/mL) was 34 % of max. The “IP-10 WB MAGPIX % max Mean” value [3] was 58 % max, the “Peptide-specific IFN-gamma ELISpot response” value ([4]; Subject 1, 10 ug/ml) was 2 spot forming units per 0.8 million PBMC and the “Peptide-specific IFN-gamma ELISpot response” value ([4]; Subject 2, 10 ug/ml) was 4 spot forming units per 0.8 million PBMC. For the same substance, the “Peptide-specific IFN-gamma ELISpot response” value ([4]; Subject 3, 10 ug/ml) was 2 spot forming units per 0.8 million PBMC, the “Peptide-specific IFN-gamma ELISpot response” value ([4]; Subject 4, 10 ug/ml) was 8 spot forming units per 0.8 million PBMC and the “Peptide-specific IFN-gamma ELISpot response” value ([4]; Subject 5, 10 ug/ml) was 0 spot forming units per 0.8 million PBMC. The “Peptide-specific IFN-gamma ELISpot response” value ([4]; Subject 6, 10 ug/ml) was 4 spot forming units per 0.8 million PBMC, the “Peptide-specific IFN-gamma ELISpot response” value ([4]; Subject 7, 10 ug/ml) was 1 spot forming units per 0.8 million PBMC and the “Peptide-specific IFN-gamma ELISpot response” value ([4]; Subject 8, 10 ug/ml) was 0 spot forming units per 0.8 million PBMC. The “Peptide-specific IFN-gamma ELISpot response” value ([4]; Subject 9, 10 ug/ml) was 0 spot forming units per 0.8 million PBMC and the “Peptide-specific IFN-gamma ELISpot response” value ([4]; Subject 10, 10 ug/ml) was 1 spot forming units per 0.8 million PBMC.
